Assay results taken from patent US7989467B2, “Use of indole-derived compounds for the preparation of a medicament that can be used to treat diseases related to the splicing process” (Centre National de la Recherche Scientifique (CNRS), priority 2003, dated 2011).

Test system: HIV
Assay: Inhibition of HIV multiplication in PMA-stimulated U1 cells (RT-PCR of viral transcripts)
Format: cell-based
Settings: 2.5 μM; 24 h; U1 cells treated with 50 nM PMA; FIG. 6
From the text: To this end, human […] cell line U1, which is chronically infected by HIV (Folks et al., 1988. Characterization of a promonocyte clone chronically infected with HIV and inducible by 13-phorbol-12-myristate acetate. J. Immunol., 140: 1117-1122) and which produces large quantities of virus after stimulation by PMA (phorbol myristate acetate), was used. As a result, this cell line constitutes an excellent model to mimic the transition between the latency phase and the viral production phase observed in patients infected by HIV.
The results of this experiment are presented in FIG. 6 in which U1 cells (5×10^5) were treated with 50 nM of PMA in the absence (FIG. 6, lane 1) or in the presence of 2.5 μM of compounds C47, C97, C58, C57, C92, C91, C90, C83, C73, C34, C51, C45, C13, C10, C44, C6, C7, C41, C50, C32, C2, C1, C29, C35 and C99 (FIG. 6, lanes 3-27, respectively). After 24 h of treatment, the virus's transcripts were amplified by RT-PCR using specific VIH, BSS and SJ4.7A primers (Jacquenet et al., 2001, A second exon splicing silencer within human immunodeficiency virus type 1 tat exon 2 represses splicing of Tat mRNA and binds protein hnRNP. H. J. Biol. Chem. 276: 40464-75) and a radioactive tracer (α-32P) CTP.

Structure (SMILES) | inhibition of HIV multiplication (amplification of viral transcripts)
COc1ccc2c(c1)c1c(C)c3c(NCCCN(C)C)nccc3c(C)c1n2C [C1, N′-(9-methoxy-5,6,11-trimetyl-6H-pyrido[4,3-b]carbazol-1-yl)-N,N-dimethyl-propane-1,3-diamine] | excellent inhibitors of HIV multiplication
C=CCNc1nccc2c(C)c3[nH]c4ccc(OC)cc4c3c(C)c12 [C10, allyl-(9-methoxy-5,11-dimethyl-6H-pyrido[4,3-b]carbazol-1-yl)-amine] | excellent inhibitors of HIV multiplication
COc1ccc2[nH]c3c(C)c4ccnc(NCCCCCCNc5c6cc7c([nH]c8ccc(OC)cc87)c(C)c6cc[n+]5C)c4cc3c2c1.[I-] [C13, 9-methoxy-1-[6-(9-methoxy-5-methyl-6H-pyrido[4,3-b]carbazol-1-ylamino)-hexylamino]-2,5-dimethyl-6H-pyrido[4,3-b]carbazol-2-ium iodide] | excellent inhibitors of HIV multiplication
CCN(CC)CCNc1nccc2c(C)c3c(c(C)c12)c1cc(OC)ccc1n3C [C29, N,N-diethyl-N′-(9-methoxy-5,6,11-trimethyl-6H-pyrido[4,3-b]carbazol-1-yl)-ethane-1,2-diamine] | excellent inhibitors of HIV multiplication
Cc1c2ccnc(NCCCN(C)C)c2cc2c3cnccc3n(C)c12 [C32, N′-(5,6-dimethyl-5H-pyrido[3′4′:4,5]pyrrolo[2,3-g]isoquinolin-10-yl)-N,N-dimethyl-propane-1,3-diamine] | excellent inhibitors of HIV multiplication
CCN(CC)CCCNc1nccc2c(C)c3[nH]c4ccc(O)cc4c3cc12 [C35, 1-(3-diethylamino-propylamino)-5-methyl-6H-pyrido[4,3-b]carbazol-9-ol] | excellent inhibitors of HIV multiplication
CCN(CC)CCCNc1nccc2c(C)c3[nH]c4ccc(OC)cc4c3c(C)c12 [C41, N,N-diethyl-N′-(9-methoxy-5,11-dimethyl-6H-pyrido[4,3-b]carbazol-1-yl)-propane-1,3-diamine] | excellent inhibitors of HIV multiplication
CCN(CC)CC(O)CNc1nccc2c(C)c3[nH]c4ccc(OC)cc4c3cc12 (stereo not shown) [C44, 1-diethylamino-3-(9-methoxy-5-methyl-6H-pyrido[4,3-b]carbazol-1-ylamino)-propan-2-ol] | excellent inhibitors of HIV multiplication
COc1ccc2c(ccc3c2[nH]c2c(C)cnc(NCCCCN)c23)c1 [C47, N-(3-methoxy-10-methyl-11H-benzo[g]pyrido[4,3-b]indol-7-yl)-butane-1,4-diamine] | excellent inhibitors of HIV multiplication
CCN(CC)CCCNc1nccc2c(C)c3[nH]c4ccncc4c3cc12 [C51, N-N,diethyl-N′-(6-methyl-5H-pyrido[3′,4′:4,5]pyrrolo[2,3-g]isoquinolin-10-yl)-propane-1,3-diamine] | excellent inhibitors of HIV multiplication
COc1cccc2c1ccc1c2[nH]c2c(C)cnc(N)c21 [C83, 4-methoxy-10-methyl-11H-benzo[g]pyrido[4,3-b]indol-7-ylamine] | excellent inhibitors of HIV multiplication
COc1ccc2c(ccc3c2[nH]c2c(C)cnc(NCCCN)c23)c1 [C91, N-(3-methoxy-10-methyl-11H-benzo[g]pyrido[4,3-b]indol-7-yl)-propane-1,3-diamine] | excellent inhibitors of HIV multiplication
COc1ccc2c(ccc3[nH]c4c(C)cnc(NCCCN(C)C)c4c32)c1 [C92, N′-(3-methoxy-8-methyl-7H-benzo[e]pyrido[4,3-b]indol-11-yl)-N,N-dimethyl-propane-1,3-diamine] | excellent inhibitors of HIV multiplication
COc1ccc2c(ccc3c2[nH]c2c(C)cnc(NCCCN(C)CCCN)c23)c1 [C97, N-[3-(3-methoxy-10-methyl-11H-benzo[g]pyrido[4,3-b]indol-7-ylamino)-propyl]-N-methyl-propane-1,3-diamine] | excellent inhibitors of HIV multiplication
CCNCCCNc1nccc2c(C)c3c(cc12)c1cnccc1n3C [C99, N-(5,6-dimethyl-5H-pyrido[3′4′:4,5]pyrrolo[2,3-g]isoquinolin-10-yl)-N′-ethyl-propane-1,3-diamine] | excellent inhibitors of HIV multiplication

Biological target: T1, SRp55 (Homo sapiens, UniProt Q13247)
T1 sequence (Q13247 1-344): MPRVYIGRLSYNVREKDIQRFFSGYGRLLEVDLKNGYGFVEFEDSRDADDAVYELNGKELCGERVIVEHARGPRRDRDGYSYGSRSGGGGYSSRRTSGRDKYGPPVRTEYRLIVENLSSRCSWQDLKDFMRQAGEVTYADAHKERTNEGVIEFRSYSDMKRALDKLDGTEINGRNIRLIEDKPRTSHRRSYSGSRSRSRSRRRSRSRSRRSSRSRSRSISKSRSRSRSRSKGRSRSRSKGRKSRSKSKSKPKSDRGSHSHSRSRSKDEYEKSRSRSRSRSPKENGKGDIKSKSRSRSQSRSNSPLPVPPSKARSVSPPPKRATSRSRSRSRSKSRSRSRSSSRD
Assay: In vitro splicing results, Table 3: SRp55
Format: biochemical
Settings: summary of Table 3

Structure (SMILES) | inhibit the activity of the SRp55 protein specifically
Cc1c2ccnc(NCCC(C)C)c2c(C)c2c1[nH]c1ccc(O)cc12 [C19, 5,11-dimethyl-1-(3-methyl-butylamino)-6H-pyrido[4,3-b]carbazol-9-ol] | inhibit the activity of the SRp55 protein specifically
COc1ccc2[nH]c3c(C)c4ccnc(NCCN5CCCC5)c4cc3c2c1 [C42, (9-methoxy-5-methyl-6H-pyrido[4,3-b]carbazol-1-yl)-(2-pyrrolidin-1-yl-ethyl)-amine] | inhibit the activity of the SRp55 protein specifically
Cc1cnc(NCCCN(C)C)c2c1[nH]c1c3cccc(O)c3ccc12 [C76, 7-(3-dimethylamino-propylamino)-10-methyl-11H-benzo[g]pyrido[4,3-b]indol-4-ol] | inhibit the activity of the SRp55 protein specifically
COc1ccc2ccc3[nH]c4c(C)cnc(NCCCN(C)C)c4c3c2c1 [C77, N′-(2-methoxy-8-methyl-7H-benzo[e]pyrido[4,3-b]indol-11-yl)-N,N-dimethyl-propane-1,3-diamine] | inhibit the activity of the SRp55 protein specifically
CCN(CC)CCCNc1ncc(C)c2c1c1ccc3ccccc3c1n2C [C78, N′-(10,11-dimethyl-11H-benzo[g]pyrido[4,3-b]indol-7-yl)-N,N-diethyl-propane-1,3-diamine] | inhibit the activity of the SRp55 protein specifically
Cc1cnc(NCCCN(C)C)c2c3c4ccccc4ccc3n(C)c12 [C79, N′-(7,8-dimethyl-7H-benzo[e]pyrido[4,3-b]indol-11-yl)-N,N-dimethyl-propane-1,3-diamine] | inhibit the activity of the SRp55 protein specifically
Cc1cnc(NCCCN(C)C)c2c1[nH]c1c3ccccc3ccc12 [C80, N,N-dimethyl-N′-(10-methyl-11H-benzo[g]pyrido[4,3-b]indoi-7-yl)-propane-1,3-diamine] | inhibit the activity of the SRp55 protein specifically
CCN(CC)CCCNc1ncc(C)c2[nH]c3c4ccccc4ccc3c12 [C82, N,N-diethyl-N′-(10-methyl-11H-benzo[g]pyrido[4,3-b]indol-7-yl)-propane-1,3-diamine] | inhibit the activity of the SRp55 protein specifically
COc1cccc2c1ccc1c3c(NCCCN(C)C)ncc(C)c3n(C)c21 [C85, N′-(4-methoxy-10,11-dimethyl-11H-benzo[g]pyrido[4,3-b]indol-7-yl)-N,N-dimethyl-propane-1,3-diamine] | inhibit the activity of the SRp55 protein specifically
Cc1cnc(NCCCN(C)C)c2c1[nH]c1ccc3ccccc3c12 [C87, N,N-dimethyl-N′-(8-methyl-7H-benzo[e]pyrido[4,3-b]indol-11-yl)-propane-1,3-diamine] | inhibit the activity of the SRp55 protein specifically
Cc1cnc(NCC(C)CN(C)C)c2c1[nH]c1ccc3cc(O)ccc3c12 (stereo not shown) [C88, 11-(3-dimethylamino-2-methyl-propylamino)-8-methyl-7H-benzo[e]pyrido[4,3-b]indol-3-ol] | inhibit the activity of the SRp55 protein specifically
COc1cccc2c1ccc1[nH]c3c(C)cnc(NCCCN(C)C)c3c12 [C93, N′-(4-methoxy-8-methyl-7H-benzo[e]pyrido[4,3-b]indol-11-yl)-N,N-dimethyl-propane-1,3-diamine] | inhibit the activity of the SRp55 protein specifically
COc1ccc2c(ccc3[nH]c4c(C)cnc(NCCCCCCN)c4c32)c1 [C95, N-(3-methoxy-8-methyl-7H-benzo[e]pyrido[4,3-b]indol-11-yl)-hexane-1,6-diamine] | inhibit the activity of the SRp55 protein specifically
